The source made the active and inactive calls. No cut-off for these calls is given here.
What was measured:
[1] = Neurotoxicity in ip dosed albino mouse assessed as motor impairment measured at 4 hrs by rotarod test; format: toxicity, organism-based; details: in vivo
[2] = Neurotoxicity in ip dosed albino mouse assessed as motor impairment measured at 0.5 hrs by rotarod test; format: toxicity, organism-based; details: in vivo
Mus musculus [3] = test: Anticonvulsant activity in ip dosed albino mouse model of maximal electroshock-induced seizures assessed as prevention of tonic hind limb extension pretreated for 0.5 hrs followed by 50 mA current-induction for 0.25 secs; format: functional
Mus musculus [4] = test: Anticonvulsant activity in ip dosed albino mouse model of maximal electroshock-induced seizures assessed as prevention of tonic hind limb extension pretreated for 4 hrs followed by 50 mA current-induction for 0.25 secs; format: functional
Mus musculus [5] = test: Anticonvulsant activity in ip dosed albino mouse model of subcutaneous pentylenetetrazole-induced seizure assessed as failure to observe even a single episode of clonic spasms for at least 5 secs pretreated for 4 hrs followed by pentylenetetrazole induction; format: functional
Mus musculus [6] = test: Anticonvulsant activity in ip dosed albino mouse model of subcutaneous pentylenetetrazole-induced seizure assessed as failure to observe even a single episode of clonic spasms for at least 5 secs pretreated for 0.5 hrs followed by pentylenetetrazole induction; format: functional
[7] = target: 4-aminobutyrate aminotransferase, mitochondrial (Mus musculus, UniProt P61922); test: Inhibition of GABA aminotransferase in mouse brain homogenates using GABA and alpha-ketoglutarate as substrates preincubated for 30 mins followed by beta-NADP addition and measured for 20 mins by spectrophotometric method; format: tissue-based
Mus musculus [8] = test: Anticonvulsant activity in po dosed albino mouse brain assessed as increase in brain GABA level administered for 7 days by TLC analysis; format: functional
[9] = Hepatotoxicity in albino mouse assessed as decrease in serum SGOT level at 30 mg/kg, po administered daily for one month measured post-last dose; format: toxicity, organism-based; details: in vivo
[10] = Hepatotoxicity in albino mouse assessed as decrease in serum SGPT level at 30 mg/kg, po administered daily for one month measured post-last dose; format: toxicity, organism-based; details: in vivo
[11] = Hepatotoxicity in albino mouse assessed as decrease in serum alkaline phosphatase level at 30 mg/kg, po administered daily for one month measured post-last dose; format: toxicity, organism-based; details: in vivo
[12] = Hepatotoxicity in albino mouse assessed as appearance of normal hepatocyte with clearing of cytoplasm at 30 mg/kg, po administered daily for one month measured post-last dose by histopathological analysis; format: toxicity, organism-based; details: in vivo
[13] = Hepatotoxicity in albino mouse assessed as increase in serum SGPT level at 30 mg/kg, po administered daily for one month measured post-last dose; format: toxicity, organism-based; details: in vivo
[14] = Hepatotoxicity in albino mouse assessed as increase in serum serum alkaline phosphatase level at 30 mg/kg, po administered daily for one month measured post-last dose; format: toxicity, organism-based; details: in vivo

Chain of 4-aminobutyrate aminotransferase, mitochondrial (P61922 whole entry): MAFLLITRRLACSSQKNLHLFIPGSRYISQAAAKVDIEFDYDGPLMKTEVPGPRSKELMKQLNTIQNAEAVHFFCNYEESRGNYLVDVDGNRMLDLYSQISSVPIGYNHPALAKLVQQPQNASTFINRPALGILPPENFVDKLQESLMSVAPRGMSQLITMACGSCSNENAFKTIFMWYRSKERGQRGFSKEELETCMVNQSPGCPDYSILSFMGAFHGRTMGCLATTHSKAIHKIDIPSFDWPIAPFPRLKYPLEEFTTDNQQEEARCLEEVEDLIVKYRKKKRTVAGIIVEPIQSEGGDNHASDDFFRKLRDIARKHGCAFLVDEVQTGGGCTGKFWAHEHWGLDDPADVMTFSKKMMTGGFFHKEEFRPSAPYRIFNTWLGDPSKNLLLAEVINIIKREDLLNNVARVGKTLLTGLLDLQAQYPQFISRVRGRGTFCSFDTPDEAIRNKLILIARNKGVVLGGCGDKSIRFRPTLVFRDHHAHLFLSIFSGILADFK

Row | SMILES | MED=>50 [1] | MED=>50 [2] | MED=>50 (Mus musculus [3]) | MED=>50 (Mus musculus [4]) | MED=>50 (Mus musculus [5]) | MED=>50 (Mus musculus [6]) | IC50 [7] [µM] | fold change (FC) (Mus musculus [8]) | Activity [9] | Activity [10] | Activity [11] | Activity [12] | Activity [13] | Activity [14]
1 | O=C(Nc1nc2ccc(Cl)cc2s1)NN1C(=O)CSC1c1ccccc1Cl (stereo not drawn) | Non-Toxic | Non-Toxic | 100 mg/kg | 100 mg/kg | 300 mg/kg | 300 mg/kg |  |  |  |  |  |  |  | 
2 | COc1ccc(C2C(Cl)C(=O)N2NC(=O)Nc2nc3ccc(Cl)cc3s2)cc1 (stereo not drawn) | Non-Toxic | Non-Toxic | 300 mg/kg | 300 mg/kg | inactive | inactive |  |  |  |  |  |  |  | 
3 | O=C(Nc1nc2ccc(Cl)cc2s1)NN1C(=O)CSC1c1ccc(Cl)cc1Cl (stereo not drawn) | Non-Toxic | Non-Toxic | 30 mg/kg | 100 mg/kg | 100 mg/kg | 100 mg/kg | 15.3 | 1.5 | Toxic | Toxic | Toxic | Non-Toxic |  | 
4 | O=C(Nc1nc2ccc(Cl)cc2s1)NN1C(=O)C(Cl)C1c1ccc([N+](=O)[O-])cc1 (stereo not drawn) | Non-Toxic | Non-Toxic | 100 mg/kg | 100 mg/kg | 300 mg/kg | 300 mg/kg |  |  |  |  |  |  |  | 
5 | CCC1(C)CC(=O)NC1=O (stereo not drawn) [ETHOSUXIMIDE] | Non-Toxic | Non-Toxic | inactive | inactive | inactive | 300 mg/kg |  |  |  |  |  |  |  | 
6 | CC(=O)Oc1ccccc1C1SCC(=O)N1NC(=O)Nc1nc2ccc(Cl)cc2s1 (stereo not drawn) | Non-Toxic | Non-Toxic | 300 mg/kg | 300 mg/kg | inactive | inactive |  |  |  |  |  |  |  | 
7 | O=C1NC(=O)C(c2ccccc2)(c2ccccc2)N1 [PHENYTOIN] | 100 mg/kg | 100 mg/kg | 30 mg/kg | 30 mg/kg | inactive | inactive |  |  |  |  |  |  |  | 
8 | NC(=O)N1c2ccccc2C=Cc2ccccc21 [CARBAMAZEPINE] | 300 mg/kg | 100 mg/kg | 30 mg/kg | 100 mg/kg | 100 mg/kg | 100 mg/kg |  |  |  |  |  |  |  | 
9 | O=C(Nc1nc2ccc(Cl)cc2s1)NN1C(=O)C(Cl)C1c1ccc(Cl)cc1Cl (stereo not drawn) | Non-Toxic | Non-Toxic | 30 mg/kg | 100 mg/kg | 100 mg/kg | 100 mg/kg | 51.4 |  | Toxic |  |  |  | Toxic | Toxic
10 | Cc1ccccc1C1C(Cl)C(=O)N1NC(=O)Nc1nc2ccc(Cl)cc2s1 (stereo not drawn) | 300 mg/kg | 300 mg/kg | 300 mg/kg | 300 mg/kg | inactive | inactive |  |  |  |  |  |  |  | 
11 | CCCC(CCC)C(=O)O [VALPROIC ACID] | Non-Toxic | Non-Toxic | inactive | inactive | inactive | 300 mg/kg |  |  |  |  |  |  |  | 
12 | O=C(Nc1nc2ccc(Cl)cc2s1)NN1C(=O)CSC1c1ccccc1 (stereo not drawn) | Non-Toxic | Non-Toxic | 300 mg/kg | 300 mg/kg | 300 mg/kg | 300 mg/kg |  |  |  |  |  |  |  | 
13 | O=C(Nc1nc2ccc(Cl)cc2s1)NN1C(=O)C(Cl)C1c1ccccc1Cl (stereo not drawn) | Non-Toxic | Non-Toxic | 300 mg/kg | 300 mg/kg | inactive | inactive |  |  |  |  |  |  |  | 
14 | Cc1ccccc1C1SCC(=O)N1NC(=O)Nc1nc2ccc(Cl)cc2s1 (stereo not drawn) | 300 mg/kg | 300 mg/kg | 300 mg/kg | 300 mg/kg | inactive | inactive |  |  |  |  |  |  |  | 
15 | O=C(Nc1nc2ccc(Cl)cc2s1)NN1C(=O)C(Cl)C1c1ccccc1 (stereo not drawn) | Non-Toxic | Non-Toxic | 300 mg/kg | 300 mg/kg | inactive | inactive |  |  |  |  |  |  |  | 
16 | C=CC(N)CCC(=O)O (stereo not drawn) [VIGABATRIN] |  |  |  |  |  |  | 39.7 |  |  |  |  |  |  | 
17 | O=C(Nc1nc2ccc(Cl)cc2s1)NN1C(=O)CSC1c1ccc([N+](=O)[O-])cc1 (stereo not drawn) | Non-Toxic | Non-Toxic | 30 mg/kg | 100 mg/kg | 100 mg/kg | 100 mg/kg | 58.1 |  | Toxic |  |  |  | Toxic | Toxic
18 | COc1ccc(C2SCC(=O)N2NC(=O)Nc2nc3ccc(Cl)cc3s2)cc1 (stereo not drawn) | Non-Toxic | Non-Toxic | 300 mg/kg | inactive | inactive | inactive |  |  |  |  |  |  |  | 
19 | CC(=O)Oc1ccccc1C1C(Cl)C(=O)N1NC(=O)Nc1nc2ccc(Cl)cc2s1 (stereo not drawn) | Non-Toxic | Non-Toxic | 300 mg/kg | 300 mg/kg | inactive | inactive |  |  |  |  |  |  |  | 
